{"source": "patent US20240287122A1", "about": "“NOVEL GALACTOSIDE INHIBITOR OF GALECTINS” (GALECTO BIOTECH AB, priority 2020, published 2024)", "key": {"Galectin-1": {"molecular_target": "Galectin-1 (Homo sapiens, UniProt P09382)", "sequence (P09382 whole entry)": "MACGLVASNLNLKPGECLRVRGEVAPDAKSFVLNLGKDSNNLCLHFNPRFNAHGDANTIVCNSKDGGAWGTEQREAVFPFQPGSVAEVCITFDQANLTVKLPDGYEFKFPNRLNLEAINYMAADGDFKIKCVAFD", "test": "Fluorescence anisotropy assay, affinity for galectin-1", "type": "binding", "settings": "compound as inhibitor of the interaction between galectin and a fluorescein tagged saccharide probe", "description": "(§1) The affinity of Example 1-43 for galectins were determined by a fluorescence anisotropy assay where the compound was used as an inhibitor of the interaction between galectin and a fluorescein tagged saccharide probe as described Sörme, P., Kahl-Knutsson, B., Huflejt, M., Nilsson, U. J., and Leffler H. (2004) Fluorescence polarization as an analytical tool to evaluate galectin-ligand interactions. Anal. Biochem. 334: 36-47, (Sörme et al., 2004) and Monovalent interactions of Galectin-1 By Salomonsson, Emma; Larumbe, Amaia; Tejler, Johan; Tullberg, Erik; Rydberg, Hanna; Sundin, Anders; Khabut, Areej; Frejd, Torbjomn; Lobsanov, Yuri D.; Rini, James M.; et al, From Biochemistry (2010), 49(44), 9518-9532, (Salomonsson et al., 2010)."}, "Galectin-3": {"molecular_target": "Galectin-3 (Homo sapiens, UniProt P17931)", "sequence (P17931 whole entry)": "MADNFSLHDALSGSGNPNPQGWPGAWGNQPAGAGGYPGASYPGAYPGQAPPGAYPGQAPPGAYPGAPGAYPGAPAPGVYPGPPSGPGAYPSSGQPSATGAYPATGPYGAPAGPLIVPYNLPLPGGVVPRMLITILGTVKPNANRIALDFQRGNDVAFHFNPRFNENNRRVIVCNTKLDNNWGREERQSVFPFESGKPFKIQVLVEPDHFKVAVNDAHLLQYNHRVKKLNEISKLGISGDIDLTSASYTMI", "test": "Fluorescence anisotropy assay, affinity for galectin-3", "type": "binding", "settings": "compound as inhibitor of the interaction between galectin and a fluorescein tagged saccharide probe", "description": "as §1"}}, "note": "pKd: −log10 of the molar value."}
{"smiles": "CNC(=O)c1ccc(Br)cc1S[C@H]1OC(CO)[C@H](O)C(n2cc(-n3ccc(Cl)n3)nn2)C1OC", "note": "(stereo partly drawn) [Example 1, 5-Bromo-2-(N-methyl-carbonyl)phenyl 3-[4-(3-chloro-1H-1,2-pyrazol-1-yl)-1H-1,2,3-triazol-1-yl]-3-deoxy-2-O-methyl-1-thio-α-D-galactopyranoside]", "values": [{"measurement": "pKd", "setting": "Galectin-1", "value": 7.24}, {"measurement": "pKd", "setting": "Galectin-3", "value": 6.80}]}
{"smiles": "COC1C(n2cc(-n3ccc(Cl)n3)nn2)[C@@H](O)C(CO)O[C@@H]1Sc1cc(Br)ccc1C#N", "note": "(stereo partly drawn) [Example 2, 5-Bromo-2-cyanophenyl 3-[4-(3-chloro-1H-1,2-pyrazol-1-yl)-1H-1,2,3-triazol-1-yl]-3-deoxy-2-O-methyl-1-thio-α-D-galactopyranoside]", "values": [{"measurement": "pKd", "setting": "Galectin-1", "value": 7.07}, {"measurement": "pKd", "setting": "Galectin-3", "value": 6.89}]}
{"smiles": "COC1C(n2cc(-n3ccc(Cl)n3)nn2)[C@@H](O)C(CO)O[C@@H]1Sc1cc(Br)cnc1C#N", "note": "(stereo partly drawn) [Example 3, 5-Bromo-2-cyanopyridin-3-yl 3-[4-(3-chloro-1H-1,2-pyrazol-1-yl)-1H-1,2,3-triazol-1-yl]-3-deoxy-2-O-methyl-1-thio-α-D-galactopyranoside]", "values": [{"measurement": "pKd", "setting": "Galectin-1", "value": 6.89}, {"measurement": "pKd", "setting": "Galectin-3", "value": 6.92}]}
{"smiles": "OCC1O[C@H](Sc2cncc(Cl)c2)C(O)C(n2cc(-n3ccc(F)n3)nn2)[C@H]1O", "note": "(stereo partly drawn) [Example 4, 5-Chloropyridin-3-yl 3-deoxy-3-[4-(3-fluoro-1H-1,2-pyrazol-1-yl)-1H-1,2,3-triazol-1-yl]-1-thio-α-D-galactopyranoside]", "values": [{"measurement": "pKd", "setting": "Galectin-1", "value": 5.77}, {"measurement": "pKd", "setting": "Galectin-3", "value": 6.44}]}
{"smiles": "OCC1O[C@H](Sc2cncc(Cl)c2)C(O)C(n2cc(-n3ccc(Cl)n3)nn2)[C@H]1O", "note": "(stereo partly drawn) [Example 5, 5-Chloropyridin-3-yl 3-[4-(3-chloro-1H-1,2-pyrazol-1-yl)-1H-1,2,3-triazol-1-yl]-3-deoxy-1-thio-α-D-galactopyranoside]", "values": [{"measurement": "pKd", "setting": "Galectin-1", "value": 6.30}, {"measurement": "pKd", "setting": "Galectin-3", "value": 6.51}]}
{"smiles": "COC1C(n2cc(-n3ccc(Cl)n3)nn2)[C@@H](O)C(CO)O[C@@H]1Sc1cc(Cl)cnc1C(F)(F)F", "note": "(stereo partly drawn) [Example 6, 5-Chloro-2-(trifluoromethyl)pyridin-3-yl 3-[4-(3-chloro-1H-1,2-pyrazol-1-yl)-1H-1,2,3-triazol-1-yl]-3-deoxy-2-O-methyl-1-thio-α-D-galactopyranoside]", "values": [{"measurement": "pKd", "setting": "Galectin-1", "value": 6.70}, {"measurement": "pKd", "setting": "Galectin-3", "value": 6.57}]}
{"smiles": "COC1C(n2cc(-n3ccc(Cl)n3)nn2)[C@@H](O)C(CO)O[C@@H]1Sc1cc(Br)cnc1C(F)(F)F", "note": "(stereo partly drawn) [Example 7, 5-Bromo-2-(trifluoromethyl)pyridin-3-yl 3-[4-(3-chloro-1H-1,2-pyrazol-1-yl)-1H-1,2,3-triazol-1-yl]-3-deoxy-2-O-methyl-1-thio-α-D-galactopyranoside]", "values": [{"measurement": "pKd", "setting": "Galectin-1", "value": 6.82}, {"measurement": "pKd", "setting": "Galectin-3", "value": 6.68}]}
{"smiles": "COC1C(n2cc(-n3ccc(Cl)n3)nn2)[C@@H](O)C(CO)O[C@@H]1Sc1cnc(C(F)(F)F)c(Cl)c1", "note": "(stereo partly drawn) [Example 8, 3-Chloro-2-(trifluoromethyl)pyridin-5-yl 3-[4-(3-chloro-1H-1,2-pyrazol-1-yl)-1H-1,2,3-triazol-1-yl]-3-deoxy-2-O-methyl-1-thio-α-D-galactopyranoside]", "values": [{"measurement": "pKd", "setting": "Galectin-1", "value": 6.44}, {"measurement": "pKd", "setting": "Galectin-3", "value": 6.27}]}
{"smiles": "COC1C(n2cc(-n3ccc(Cl)n3)nn2)[C@@H](O)C(CO)O[C@@H]1Sc1cnc(C(F)(F)F)c(Br)c1", "note": "(stereo partly drawn) [Example 9, 3-Bromo-2-(trifluoromethyl)pyridin-5-yl 3-[4-(3-chloro-1H-1,2-pyrazol-1-yl)-1H-1,2,3-triazol-1-yl]-3-deoxy-2-O-methyl-1-thio-α-D-galactopyranoside]", "values": [{"measurement": "pKd", "setting": "Galectin-1", "value": 6.68}, {"measurement": "pKd", "setting": "Galectin-3", "value": 6.41}]}
{"smiles": "COC1C(n2cc(-n3ccc(Cl)n3)nn2)[C@@H](O)C(CO)O[C@@H]1Sc1cc(Br)cnc1C(=O)N(C)C", "note": "(stereo partly drawn) [Example 10, 5-Bromo-2-(N,N-dimethylcarbamoyl)pyridin-3-yl 3-[4-(3-chloro-1H-1,2-pyrazol-1-yl)-1H-1,2,3-triazol-1-yl]-3-deoxy-2-O-methyl-1-thio-α-D-galactopyranoside]", "values": [{"measurement": "pKd", "setting": "Galectin-1", "value": 7.27}, {"measurement": "pKd", "setting": "Galectin-3", "value": 7.14}]}
{"smiles": "COC1C(n2cc(-n3cc(Cl)cn3)nn2)[C@@H](O)C(CO)O[C@@H]1Sc1cc(Br)cnc1C#N", "note": "(stereo partly drawn) [Example 11, 5-Bromo-2-cyanopyridin-3-yl 3-[4-(4-chloro-1H-1,2-pyrazol-1-yl)-1H-1,2,3-triazol-1-yl]-3-deoxy-2-O-methyl-1-thio-α-D-galactopyranoside]", "values": [{"measurement": "pKd", "setting": "Galectin-1", "value": 6.28}, {"measurement": "pKd", "setting": "Galectin-3", "value": 6.38}]}
{"smiles": "COC1C(n2cc(-n3ccc(F)n3)nn2)[C@@H](O)C(CO)O[C@@H]1Sc1cc(Br)cnc1C#N", "note": "(stereo partly drawn) [Example 12, 5-Bromo-2-cyanopyridin-3-yl 3-deoxy-3-[4-(3-fluoro-1H-1,2-pyrazol-1-yl)-1H-1,2,3-triazol-1-yl]-2-O-methyl-1-thio-α-D-galactopyranoside]", "values": [{"measurement": "pKd", "setting": "Galectin-1", "value": 6.74}, {"measurement": "pKd", "setting": "Galectin-3", "value": 6.80}]}
{"smiles": "COC1C(n2cc(-n3cc(F)cn3)nn2)[C@@H](O)C(CO)O[C@@H]1Sc1cc(Br)cnc1C#N", "note": "(stereo partly drawn) [Example 13, 5-Bromo-2-cyanopyridin-3-yl 3-deoxy-3-[4-(4-fluoro-1H-1,2-pyrazol-1-yl)-1H-1,2,3-triazol-1-yl]-2-O-methyl-1-thio-α-D-galactopyranoside]", "values": [{"measurement": "pKd", "setting": "Galectin-1", "value": 6.74}, {"measurement": "pKd", "setting": "Galectin-3", "value": 5.77}]}
{"smiles": "COC1C(n2cc(-n3ccc(C)n3)nn2)[C@@H](O)C(CO)O[C@@H]1Sc1cc(Br)cnc1C#N", "note": "(stereo partly drawn) [Example 14, 5-Bromo-2-cyanopyridin-3-yl 3-deoxy-3-[4-(3-methyl-1H-1,2-pyrazol-1-yl)-1H-1,2,3-triazol-1-yl]-2-O-methyl-1-thio-α-D-galactopyranoside]", "values": [{"measurement": "pKd", "setting": "Galectin-1", "value": 6.74}, {"measurement": "pKd", "setting": "Galectin-3", "value": 5.85}]}
{"smiles": "COC1C(n2cc(-n3nccc3C)nn2)[C@@H](O)C(CO)O[C@@H]1Sc1cc(Br)cnc1C#N", "note": "(stereo partly drawn) [Example 15, 5-Bromo-2-cyanopyridin-3-yl 3-deoxy-3-[4-(5-methyl-1H-1,2-pyrazol-1-yl)-1H-1,2,3-triazol-1-yl]-2-O-methyl-1-thio-α-D-galactopyranoside]", "values": [{"measurement": "pKd", "setting": "Galectin-1", "value": 6.05}, {"measurement": "pKd", "setting": "Galectin-3", "value": 5.37}]}
{"smiles": "COC1C(n2cc(-n3nc(Cl)cc3C)nn2)[C@@H](O)C(CO)O[C@@H]1Sc1cc(Br)cnc1C#N", "note": "(stereo partly drawn) [Example 16, 5-Bromo-2-cyanopyridin-3-yl 3-[4-(3-chloro-5-methyl-1H-1,2-pyrazol-1-yl)-1H-1,2,3-triazol-1-yl]-3-deoxy-2-O-methyl-1-thio-α-D-galactopyranoside]", "values": [{"measurement": "pKd", "setting": "Galectin-1", "value": 6.46}, {"measurement": "pKd", "setting": "Galectin-3", "value": 6.40}]}
{"smiles": "COC1C(n2cc(-n3nc(C(F)(F)F)cc3Cl)nn2)[C@@H](O)C(CO)O[C@@H]1Sc1cc(Br)cnc1C#N", "note": "(stereo partly drawn) [Example 17, 5-Bromo-2-cyanopyridin-3-yl 3-{4-[5-chloro-3-(trifluoromethyl)-1H-1,2-pyrazol-1-yl]-1H-1,2,3-triazol-1-yl}-3-deoxy-2-O-methyl-1-thio-α-D-galactopyranoside]", "values": [{"measurement": "pKd", "setting": "Galectin-1", "value": 5.70}, {"measurement": "pKd", "setting": "Galectin-3", "value": 6.25}]}
{"smiles": "COC1C(n2cc(-n3cc(C)c(Cl)n3)nn2)[C@@H](O)C(CO)O[C@@H]1Sc1cc(Br)cnc1C#N", "note": "(stereo partly drawn) [Example 18, 5-Bromo-2-cyanopyridin-3-yl 3-[4-(3-chloro-4-methyl-1H-1,2-pyrazol-1-yl)-1H-1,2,3-triazol-1-yl]-3-deoxy-2-O-methyl-1-thio-α-D-galactopyranoside]", "values": [{"measurement": "pKd", "setting": "Galectin-1", "value": 6.46}, {"measurement": "pKd", "setting": "Galectin-3", "value": 7.39}]}
{"smiles": "CCN(C(=O)c1ncc(Br)cc1S[C@H]1OC(CO)[C@H](O)C(n2cc(-n3ccc(Cl)n3)nn2)C1OC)C(C)C", "note": "(stereo partly drawn) [Example 19, 5-Bromo-2-(N,N-ethylisopropylcarbamoyl)pyridin-3-yl 3-[4-(3-chloro-1H-1,2-pyrazol-1-yl)-1H-1,2,3-triazol-1-yl]-3-deoxy-2-O-methyl-1-thio-α-D-galactopyranoside]", "values": [{"measurement": "pKd", "setting": "Galectin-1", "value": 6.96}, {"measurement": "pKd", "setting": "Galectin-3", "value": 7.04}]}
{"smiles": "COC1C(n2cc(-n3ccc(Cl)n3)nn2)[C@@H](O)C(CO)O[C@@H]1Sc1cc(Br)cnc1C(=O)N(CC(C)C)CC(C)C", "note": "(stereo partly drawn) [Example 20, 5-Bromo-2-(N,N-diisobutylcarbamoyl)pyridin-3-yl 3-[4-(3-chloro-1H-1,2-pyrazol-1-yl)-1H-1,2,3-triazol-1-yl]-3-deoxy-2-O-methyl-1-thio-α-D-galactopyranoside]", "values": [{"measurement": "pKd", "setting": "Galectin-1", "value": 6.44}, {"measurement": "pKd", "setting": "Galectin-3", "value": 6.44}]}
{"smiles": "CCN(CC1CC1)C(=O)c1ncc(Br)cc1S[C@H]1OC(CO)[C@H](O)C(n2cc(-n3ccc(Cl)n3)nn2)C1OC", "note": "(stereo partly drawn) [Example 21, 5-Bromo-2-[N,N-(cyclopropylmethyl)ethylcarbamoyl]pyridin-3-yl 3-[4-(3-chloro-1H-1,2-pyrazol-1-yl)-1H-1,2,3-triazol-1-yl]-3-deoxy-2-O-methyl-1-thio-α-D-galactopyranoside]", "values": [{"measurement": "pKd", "setting": "Galectin-1", "value": 7.00}, {"measurement": "pKd", "setting": "Galectin-3", "value": 7.00}]}
{"smiles": "COC1C(n2cc(-n3ccc(Cl)n3)nn2)[C@@H](O)C(CO)O[C@@H]1Sc1cc(Br)cnc1C(=O)N(C)CC(C)(C)F", "note": "(stereo partly drawn) [Example 22, 5-Bromo-2-[N,N-(2-fluoro-2-methylpropyl)methylcarbamoyl]pyridin-3-yl 3-[4-(3-chloro-1H-1,2-pyrazol-1-yl)-1H-1,2,3-triazol-1-yl]-3-deoxy-2-O-methyl-1-thio-α-D-galactopyranoside]", "values": [{"measurement": "pKd", "setting": "Galectin-1", "value": 7.01}, {"measurement": "pKd", "setting": "Galectin-3", "value": 7.12}]}
{"smiles": "CCN(C(=O)c1ncc(Br)cc1S[C@H]1OC(CO)[C@H](O)C(n2cc(-n3ccc(Cl)n3)nn2)C1OC)C(C)(C)C", "note": "(stereo partly drawn) [Example 23, 5-Bromo-2-[N,N-(tert-butyl)ethylcarbamoyl]pyridin-3-yl 3-[4-(3-chloro-1H-1,2-pyrazol-1-yl)-1H-1,2,3-triazol-1-yl]-3-deoxy-2-O-methyl-1-thio-α-D-galactopyranoside]", "values": [{"measurement": "pKd", "setting": "Galectin-1", "value": 7.06}, {"measurement": "pKd", "setting": "Galectin-3", "value": 7.14}]}
{"smiles": "COC1C(n2cc(-n3ccc(Cl)n3)nn2)[C@@H](O)C(CO)O[C@@H]1Sc1cc(Br)cnc1C(=O)N(CC1CC1)CC1CC1", "note": "(stereo partly drawn) [Example 24, 5-Bromo-2-[N,N-bis(cyclopropylmethyl)carbamoyl]pyridin-3-yl 3-[4-(3-chloro-1H-1,2-pyrazol-1-yl)-1H-1,2,3-triazol-1-yl]-3-deoxy-2-O-methyl-1-thio-α-D-galactopyranoside]", "values": [{"measurement": "pKd", "setting": "Galectin-1", "value": 6.92}, {"measurement": "pKd", "setting": "Galectin-3", "value": 7.08}]}
